Source: patent US5780604A, “11,12-cyclic phosphite or phosphate derivatives of erythromycin and related macrolides” (Abbott Laboratories, priority 1997, dated 1998)
Values after ≈ are worked out from the molar mass of the structure shown.

What was measured:
[1] = system: Gram-negative bacteria; conditions: background statement; cited from earlier work
[2] = system: gram-positive bacteria, mycoplasmas; conditions: background statement, U.S. Pat. No. 4,331,803; cited from earlier work
[3] = background statement; cited from earlier work
[4] = system: Haemophilis Influenzae DILL AMP R; type: cell-based; conditions: BHI agar, 35°-37° C., 20 to 24 hours; unit assumed
Experimental: (§1) Representative compounds of the present invention were assayed in vitro for antibacterial activity as follows: Twelve petri dishes containing successive aqueous dilutions of the test compound mixed with 10 mL of sterilized Brain Heart Infusion (BHI) agar (Difco 0418-01-5) were prepared. Each plate was inoculated with 1:100 (or 1:10 for slow-growing strains, such as Micrococcus and Streptococcus) dilutions of up to 32 different microorganisms, using a Steers replicator block. […] In addition, a control plate, using BHI agar containing no test compound, was prepared and incubated at the beginning and end of each test.
(§2) An additional plate containing a compound having known susceptibility patterns for the organisms being tested and belonging to the same antibiotic class as the test compound was also prepared and incubated as a further control, as well as to provide test-to-test comparability.
(§3) After incubation, each plate was visually inspected. The minimum inhibitory concentration (MIC) was defined as the lowest concentration of drug yielding no growth, a slight haze, or sparsely isolated colonies on the inoculum spot as compared to the growth control.

[5] = system: Escherichia coli JUHL; test: In vitro antibacterial activity (MIC), agar dilution; type: cell-based; conditions: unit assumed
Experimental: as §1, §2, §3

[6] = system: Enterococcus faecium ATCC 8043; type: cell-based; conditions: BHI agar, 35°-37° C., 20 to 24 hours; unit assumed
Experimental: as §1, §2, §3

[7] = system: Micrococcus luteus ATCC 4698; type: cell-based; conditions: BHI agar, 35°-37° C., 20 to 24 hours; unit assumed
Experimental: as §1, §2, §3

[8] = system: Micrococcus luteus ATCC 9341; type: cell-based; conditions: BHI agar, 35°-37° C., 20 to 24 hours; unit assumed
Experimental: as §1, §2, §3

[9] = system: Staphylococcus aureus A5177; type: cell-based; conditions: BHI agar, 35°-37° C., 20 to 24 hours; unit assumed
Experimental: as §1, §2, §3

[10] = system: Staphylococcus aureus ATCC 6538P; type: cell-based; conditions: BHI agar, 35°-37° C., 20 to 24 hours; unit assumed
Experimental: as §1, §2, §3

[11] = system: Staphylococcus aureus CMX 553; type: cell-based; conditions: BHI agar, 35°-37° C., 20 to 24 hours; unit assumed
Experimental: as §1, §2, §3

[12] = system: Staphylococcus aureus CMX 642A; type: cell-based; conditions: BHI agar, 35°-37° C., 20 to 24 hours; unit assumed
Experimental: as §1, §2, §3

[13] = system: Staphylococcus aureus NCTC10649M; type: cell-based; conditions: BHI agar, 35°-37° C., 20 to 24 hours; unit assumed
Experimental: as §1, §2, §3

[14] = system: Staphylococcus epidermidis 3519; type: cell-based; conditions: BHI agar, 35°-37° C., 20 to 24 hours; unit assumed
Experimental: as §1, §2, §3

[15] = system: Streptococcus agalactiae CMX 508; type: cell-based; conditions: BHI agar, 35°-37° C., 20 to 24 hours; unit assumed
Experimental: as §1, §2, §3

[16] = system: Streptococcus bovis A-5169; type: cell-based; conditions: BHI agar, 35°-37° C., 20 to 24 hours; unit assumed
Experimental: as §1, §2, §3

[17] = system: Streptococcus pyogenes EES61; type: cell-based; conditions: BHI agar, 35°-37° C., 20 to 24 hours; unit assumed
Experimental: as §1, §2, §3

[18] = system: Streptococcus pyogenes PIU 2548; type: cell-based; conditions: BHI agar, 35°-37° C., 20 to 24 hours; unit assumed
Experimental: as §1, §2, §3

[19] = system: Candida albicans CCH 442; test: In vitro antibacterial activity (MIC), agar dilution; type: cell-based; conditions: BHI agar, 35°-37° C., 20 to 24 hours; unit assumed
Experimental: as §1, §2, §3

[20] = system: Escherichia coli DC-2; test: as above; type: cell-based; conditions: BHI agar, 35°-37° C., 20 to 24 hours; unit assumed
Experimental: as §1, §2, §3

[21] = system: Escherichia coli SS; test: as above; type: cell-based; conditions: BHI agar, 35°-37° C., 20 to 24 hours; unit assumed
Experimental: as §1, §2, §3

[22] = system: Mycobacterium smegmatis ATCC 114; test: as above; type: cell-based; conditions: BHI agar, 35°-37° C., 20 to 24 hours; unit assumed
Experimental: as §1, §2, §3

[23] = system: Nocardia Asteroides ATCC9970; test: as above; type: cell-based; conditions: BHI agar, 35°-37° C., 20 to 24 hours; unit assumed
Experimental: as §1, §2, §3

[24] = system: Staphylococcus aureus 1775; test: as above; type: cell-based; conditions: BHI agar, 35°-37° C., 20 to 24 hours; unit assumed
Experimental: as §1, §2, §3

[25] = system: Staphylococcus aureus A-5278; test: as above; type: cell-based; conditions: BHI agar, 35°-37° C., 20 to 24 hours; unit assumed
Experimental: as §1, §2, §3

[26] = system: Streptococcus Pheumoniae 5649; test: as above; type: cell-based; conditions: BHI agar, 35°-37° C., 20 to 24 hours; unit assumed
Experimental: as §1, §2, §3

[27] = system: Streptococcus Pheumoniae GYR 1171; test: as above; type: cell-based; conditions: BHI agar, 35°-37° C., 20 to 24 hours; unit assumed
Experimental: as §1, §2, §3

[28] = system: Streptococcus pyogenes 930; test: as above; type: cell-based; conditions: BHI agar, 35°-37° C., 20 to 24 hours; unit assumed
Experimental: as §1, §2, §3

[29] = BHI agar, 35°-37° C., 20 to 24 hours

SMILES	activity against Gram-negative bacteria [1]	MIC [4]	MIC [6]	MIC [7]	MIC [8]	MIC [9]	MIC [10]	MIC [11]	MIC [12]	MIC [13]	MIC [14]	MIC [15]	MIC [16]	MIC [17]	MIC [18]	MIC [19]	MIC [20]	MIC [5, 29]	MIC [21]	MIC [22]	other results
CC[C@H]1OC(=O)[C@H](C)[C@@H](O[C@H]2C[C@@](C)(OC)[C@@H](O)[C@H](C)O2)[C@H](C)[C@@H](O[C@@H]2O[C@H](C)C[C@H](N(C)C)[C@H]2O)[C@](C)(OC)C[C@@H](C)C(=O)[C@H](C)[C@@H](O)[C@]1(C)O [6-O-methyl erythromycin A]	only weak antimicrobial activity	–	–	–	–	–	–	–	–	–	–	–	–	–	–	–	–	–	–	–	antibacterial activity against many gram-positive bacteria, mycoplasmas, etc. [2]: desirable antibacterial activity; acid stability [3]: poor acid stability
CC[C@H]1OC(=O)[C@H](C)[C@@H](O[C@H]2C[C@@](C)(OC)[C@@H](O)[C@H](C)O2)[C@H](C)[C@@H](O[C@@H]2O[C@H](C)C[C@H](N(C)C)[C@H]2O)[C@](C)(O)C[C@@H](C)C(=O)[C@H](C)[C@@H](O)[C@]1(C)O [Ery. A, Erythromycin A]	only weak activity	4 µg/mL (≈ 5.45 µM)	–	–	–	–	–	–	–	–	–	–	–	–	–	–	–	–	–	–	MIC [5]: > 100 µg/mL
CC[C@H]1OC(=O)[C@H](C)C(=O)[C@H](C)[C@@H](O[C@@H]2O[C@H](C)C[C@H](N(C)C)[C@H]2O)[C@](C)(OC)C[C@@H](C)C(=O)[C@H](C)[C@H]2OP(OC)O[C@@]21C (some centres unmarked) [Example 3]	–	> 128 µg/mL	25 µg/mL (≈ 38.6 µM)	25 µg/mL (≈ 38.6 µM)	25 µg/mL (≈ 38.6 µM)	25 µg/mL (≈ 38.6 µM)	25 µg/mL (≈ 38.6 µM)	50 µg/mL (≈ 77.2 µM)	25 µg/mL (≈ 38.6 µM)	25 µg/mL (≈ 38.6 µM)	25 µg/mL (≈ 38.6 µM)	12.5 µg/mL (≈ 19.3 µM)	12.5 µg/mL (≈ 19.3 µM)	12.5 µg/mL (≈ 19.3 µM)	12.5 µg/mL (≈ 19.3 µM)	> 100 µg/mL	> 100 µg/mL	> 100 µg/mL	50 µg/mL (≈ 77.2 µM)	100 µg/mL (≈ 154 µM)	MIC [23]: 12.5 µg/mL (≈ 19.3 µM); MIC [24]: > 100 µg/mL; MIC [25]: > 100 µg/mL; MIC [26]: 16 µg/mL (≈ 24.7 µM); MIC [27]: 8 µg/mL (≈ 12.4 µM); MIC [28]: > 100 µg/mL
CCOP1O[C@@H]2[C@@H](C)C(=O)[C@H](C)C[C@@](C)(OC)[C@H](O[C@@H]3O[C@H](C)C[C@H](N(C)C)[C@H]3O)[C@@H](C)C(=O)[C@@H](C)C(=O)O[C@H](CC)[C@@]2(C)O1 (some centres unmarked) [Example 5]	–	> 128 µg/mL	25 µg/mL (≈ 37.8 µM)	50 µg/mL (≈ 75.6 µM)	25 µg/mL (≈ 37.8 µM)	25 µg/mL (≈ 37.8 µM)	25 µg/mL (≈ 37.8 µM)	50 µg/mL (≈ 75.6 µM)	50 µg/mL (≈ 75.6 µM)	25 µg/mL (≈ 37.8 µM)	25 µg/mL (≈ 37.8 µM)	12.5 µg/mL (≈ 18.9 µM)	12.5 µg/mL (≈ 18.9 µM)	12.5 µg/mL (≈ 18.9 µM)	12.5 µg/mL (≈ 18.9 µM)	> 100 µg/mL	> 100 µg/mL	> 100 µg/mL	50 µg/mL (≈ 75.6 µM)	100 µg/mL (≈ 151 µM)	MIC [23]: 12.5 µg/mL (≈ 18.9 µM); MIC [24]: > 100 µg/mL; MIC [25]: > 100 µg/mL; MIC [26]: 16 µg/mL (≈ 24.2 µM); MIC [27]: 4 µg/mL (≈ 6.04 µM); MIC [28]: > 100 µg/mL
